Reference: ChEMBL document CHEMBL4024747, “Design, Synthesis, and Biological Activities of Vibsanin B Derivatives: A New Class of HSP90 C-Terminal Inhibitors” (J Med Chem, 2017)
Active and inactive are the calls of the source. The rule behind the calls is not given here.

How the values were obtained:
Assay type in all cases: functional, cell-based
[1] = test system: MCF7; assay: Antiproliferative activity against human MCF7 cells assessed as reduction in cell viability after 48 hrs by MTT assay; conditions: MCF7, 48 h
[2] = test system: A549; assay: Antiproliferative activity against human A549 cells assessed as reduction in cell viability after 48 hrs by MTT assay; conditions: for IC50: A549, 48 h
[3] = test system: SMMC-7721; assay: Antiproliferative activity against human SMMC7721 cells assessed as reduction in cell viability after 48 hrs by MTT assay; conditions: for IC50: SMMC-7721, 48 h
[4] = test system: HL-60; assay: Antiproliferative activity against human HL60 cells assessed as reduction in cell viability after 48 hrs by MTT assay; conditions: for IC50: HL-60, 48 h
[5] = test system: SW480; assay: Antiproliferative activity against human SW480 cells assessed as reduction in cell viability after 48 hrs by MTT assay; conditions: for IC50: SW480, 48 h

| SMILES | IC50 [1] [µM] | IC50 [2] [µM] | IC50 [3] [µM] | IC50 [4] [µM] | IC50 [5] [µM] | Activity [2] | Activity [3] | Activity [4] | Activity [5] |
| --- | --- | --- | --- | --- | --- | --- | --- | --- | --- |
| CC(C)=CCC[C@]1(C)/C=C/[C@@H](OC(=O)C=C(C)C)[C@](C)(O)/C=C/C(=O)/C(CO[Si](c2ccccc2)(c2ccccc2)C(C)(C)C)=C\C1 | 15.8 | 13 | 38 | 14.4 | 20.7 | – | – | – | – |
| CC(=O)O[C@@H]1/C=C/[C@@](C)(CCC=C(C)C)C/C=C(/CO)C(=O)/C=C/[C@@]1(C)O | 7.89 | 8.67 | 9.87 | 5.05 | 4.9 | – | – | – | – |
| COC/C1=C/C[C@](C)(CCC=C(C)C)/C=C/[C@@H](OC(=O)C=C(C)C)[C@](C)(O)/C=C/C1=O | 4.13 | 3.95 | 11 | 3.07 | 3.85 | – | – | – | – |
| CC(C)=CCC[C@]1(C)/C=C/[C@@H](OC(=O)C=C(C)C)[C@](C)(O)/C=C/[C@H](O)/C(CO)=C\C1 | 33 | > 40 | > 40 | > 40 | > 40 | – | – | – | – |
| CC(C)=CCC[C@]1(C)/C=C/[C@@H](OC(=O)C=C(C)C)[C@](C)(O)/C=C/C(=O)/C(COC(=O)c2ccc([N+](=O)[O-])cc2)=C\C1 | 0.67 | 1.31 | 2.56 | 0.83 | 0.57 | – | – | – | – |
| CC(C)=CCC[C@]1(C)/C=C/[C@@H](OC(=O)c2ccccc2)[C@](C)(O)/C=C/C(=O)/C(CO)=C\C1 | 27 | 15.8 | 20.3 | 22.6 | 10.3 | – | – | – | – |
| CCCC(=O)O[C@@H]1/C=C/[C@@](C)(CCC=C(C)C)C/C=C(/CO)C(=O)/C=C/[C@@]1(C)O | 6.04 | 4.1 | 7.81 | 4.18 | 2.51 | – | – | – | – |
| COCOC/C1=C/C[C@](C)(CCC=C(C)C)/C=C/[C@@H](OC(=O)C=C(C)C)[C@](C)(O)/C=C/C1=O | 3.12 | 2.98 | 3.25 | 2.84 | 3.71 | – | – | – | – |
| CSC(=S)OC/C1=C/C[C@](C)(CCC=C(C)C)/C=C/[C@@H](OC(=O)C=C(C)C)[C@](C)(O)/C=C/C1=O | 0.9 | 0.38 | 0.72 | 0.18 | 0.39 | – | – | – | – |
| COCO[C@@H]1/C=C/[C@@](C)(CCC=C(C)C)C/C=C(/CO)C(=O)/C=C/[C@@]1(C)O | > 40 | > 40 | > 40 | > 40 | > 40 | – | – | – | – |
| CC(C)=CCC[C@]1(C)/C=C/[C@@H](OC(=O)C=C(C)C)[C@](C)(O)/C=C/[C@@H](O)/C(CO)=C\C1 | 17.4 | 18.7 | 16.4 | 15.9 | 19.7 | – | – | – | – |
| COC/C1=C/C[C@](C)(CCC=C(C)C)/C=C/[C@@H](OC(=O)C=C(C)C)[C@](C)(OC)/C=C/C1=O | 16.5 | 4.18 | 9.38 | 4.05 | 14.6 | – | – | – | – |
| CC(C)=CCC[C@]1(C)/C=C/[C@@H](OC(=O)C=C(C)C)[C@](C)(O)/C=C/C(=O)/C(Cn2cc(CO)nn2)=C\C1 | 2.93 | 3.47 | 3.56 | 3.2 | 2.87 | – | – | – | – |
| CCN(CC)C/C1=C/C[C@](C)(CCC=C(C)C)/C=C/[C@@H](OC(=O)C=C(C)C)[C@](C)(O)/C=C/C1=O | 0.13 | 0.13 | 0.57 | 0.14 | 0.27 | – | – | – | – |
| CC(C)=CCC[C@]1(C)/C=C/[C@@H](OC(=O)C(C)C)[C@](C)(O)/C=C/C(=O)/C(CO)=C\C1 | 11.7 | 10.8 | 10.4 | 4 | 8.51 | – | – | – | – |
| CO[C@]1(C)/C=C/C(=O)/C(CO)=C\C[C@](C)(CCC=C(C)C)/C=C/[C@H]1OC(=O)C=C(C)C | 14.3 | 14.3 | 15.8 | 14.3 | 15.2 | – | – | – | – |
| CO[C@H]1/C=C/[C@@](C)(O)[C@H](OC(=O)C=C(C)C)/C=C/[C@@](C)(CCC=C(C)C)C/C=C\1CO | 18.5 | 19.2 | 38.1 | 14.8 | 16.6 | – | – | – | – |
| CC(C)=CCC[C@]1(C)/C=C/[C@@H](OC(=O)C=C(C)C)[C@](C)(O)/C=C/C(=O)/C(CN=[N+]=[N-])=C\C1 | 4.89 | 1.72 | 3.08 | 0.91 | 4.23 | – | – | – | – |
| CO[C@@H]1/C=C/[C@@](C)(O)[C@H](OC(=O)C=C(C)C)/C=C/[C@@](C)(CCC=C(C)C)C/C=C\1CO | 33.3 | 11.2 | 38.8 | 13.8 | 12.8 | – | – | – | – |
| CC(C)=CCC[C@]1(C)/C=C/[C@@H](OC(=O)C=C(C)C)[C@](C)(O)/C=C/C(=O)/C(CN(C(C)C)C(C)C)=C\C1 | 0.78 | 0.65 | 0.34 | 0.74 | 0.75 | – | – | – | – |
| CC[Si](CC)(CC)OC/C1=C/C[C@](C)(CCC=C(C)C)/C=C/[C@@H](OC(=O)C=C(C)C)[C@](C)(O)/C=C/C1=O | 3.15 | 3.1 | 3.46 | 2.81 | 2.69 | – | – | – | – |
| CC(=O)OC/C1=C/C[C@](C)(CCC=C(C)C)/C=C/[C@@H](OC(=O)C=C(C)C)[C@](C)(OC(C)=O)/C=C/C1=O | 3.99 | 15.1 | 4.13 | 3.48 | 3.52 | – | – | – | – |

More lines, main results first:

| IC50 [1] [µM] | IC50 [2] [µM] | IC50 [3] [µM] | IC50 [4] [µM] | IC50 [5] [µM] | SMILES | Activity [2] | Activity [3] | Activity [4] | Activity [5] |
| --- | --- | --- | --- | --- | --- | --- | --- | --- | --- |
| 2.51 | 3.47 | 3.47 | 4.76 | 2.63 | CO/N=C/C1=C/C[C@](C)(CCC=C(C)C)/C=C/[C@@H](OC(=O)C=C(C)C)[C@](C)(O)/C=C/C1=O | – | – | – | – |
| 12.1 | 11.3 | 13.8 | 9.08 | 11.7 | CCN(CC)C(=O)/C1=C/C[C@](C)(CCC=C(C)C)/C=C/[C@@H](OC(=O)C=C(C)C)[C@](C)(O)/C=C/C1=O | – | – | – | – |
| 3.67 | 2.7 | 3.67 | 3.34 | 3.3 | CC(C)=CCC[C@]1(C)/C=C/[C@@H](OC(=O)C=C(C)C)[C@](C)(O)/C=C/C(=O)/C(C(=O)N(C)C)=C\C1 | – | – | – | – |
| 4.51 | 2.95 to 4.63 | 2.95 to 4.63 | 2.95 to 4.63 | 2.95 to 4.63 | CC(=O)OC/C1=C/C[C@](C)(CCC=C(C)C)/C=C/[C@@H](OC(=O)C=C(C)C)[C@](C)(O)/C=C/C1=O | – | – | – | – |
| 12.6 | – | – | – | – | CC(C)=CCC[C@]1(C)/C=C/[C@@H](OC(=O)C=C(C)C)[C@](C)(O)/C=C/C(=O)/C(C=O)=C\C1 | Active | Active | Active | Active |
| 2.32 | 0.57 | 0.73 | 0.24 | 1.43 | CC(C)=CCC[C@]1(C)/C=C/[C@@H](OC(=O)C=C(C)C)[C@](C)(O)/C=C/C(O)/C(C=O)=C\C1 (stereo not given in full) | – | – | – | – |
| 6.04 | 4.2 | 4 | 2.77 | 3.35 | CC(C)=CCC[C@]1(C)/C=C/[C@@H](OC(=O)C=C(C)C)[C@](C)(O)/C=C/C(=O)/C(CO[Si](C)(C)C(C)(C)C)=C\C1 | – | – | – | – |
| 0.52 | 0.66 | 1.14 | 1.11 | 0.77 | CC(C)=CCC[C@]1(C)/C=C/[C@@H](OC(=O)C=C(C)C)[C@](C)(O)/C=C/C(=O)/C(CN2CCOCC2)=C\C1 | – | – | – | – |
| 3.36 | 1.67 | 3.68 | 3.27 | 2.8 | CC(C)=CCC[C@]1(C)/C=C/[C@@H](OC(=O)C=C(C)C)[C@](C)(O)/C=C/C(=O)/C(C(=O)N2CCOCC2)=C\C1 | – | – | – | – |
| 8.84 | 2.66 | 3.09 | 1.06 | 12.4 | CC(C)=CCC[C@](C)(/C=C/[C@@H](OC(=O)C=C(C)C)[C@](C)(O)/C=C/C(=O)/C=C/N1CCN(C)CC1)CC=O | – | – | – | – |
| 17.2 | 13.5 | 17.2 | 12.7 | 16 | CC(C)=CCC[C@]1(C)/C=C/[C@@H](OC(=O)C=C(C)C)[C@](C)(O)/C=C/C(=O)/C(C(=O)N(C(C)C)C(C)C)=C\C1 | – | – | – | – |
| 12.2 | 11.2 | 10.2 | 4.69 | 10.3 | CC(C)=CCC[C@](C)(/C=C/[C@@H](OC(=O)C=C(C)C)[C@](C)(O)/C=C/C(=O)/C=C/N(C)C)CC=O | – | – | – | – |
| 17.2 | 13 | 14.9 | 12.3 | 15.1 | CC(C)=CCC[C@]1(C)/C=C/[C@@H](OC(=O)C=C(C)C)[C@](C)(O)/C=C/C(=O)/C(C(=O)N2CCCC2)=C\C1 | – | – | – | – |
| 12.3 | 8.73 | 7.44 | 4.06 | 9.88 | CC(C)=CCC[C@](C)(/C=C/[C@@H](OC(=O)C=C(C)C)[C@](C)(O)/C=C/C(=O)/C=C/N1CCOCC1)CC=O | – | – | – | – |
| 16.1 | > 10 | > 10 | > 10 | > 10 | CC(C)=CCC[C@]1(C)/C=C/[C@@H](OC(=O)C=C(C)C)[C@](C)(O)/C=C/C(=O)/C(C(=O)O)=C\C1 | – | – | – | – |
| 6.3 | 8.44 | 11.7 | 5.47 | 4.52 | CC(C)=CCC[C@]1(C)/C=C/[C@@H](OC(=O)C=C(C)C)[C@](C)(O)/C=C/C(=O)/C(C(=O)N2CCN(C)CC2)=C\C1 | – | – | – | – |
| > 40 | > 40 | > 40 | > 40 | > 40 | CC(C)=CCC[C@]1(C)/C=C/[C@@H](OC(=O)C=C(C)C)[C@](C)(O)CCC(=O)/C(CO)=C\C1 | – | – | – | – |
